Experimental data from ChEMBL document CHEMBL6074689 (Eur J Med Chem, 2025).
pIC50: −log10 of the molar value.

Legend:
[1] = biological target: Acetylcholinesterase (Homo sapiens, UniProt P22303); test: Inhibition of human recombinant AChE expressed in HEK293 cells using acetylthiocholine iodide as substrate preincubated with compound for 30 mins followed by substrate addition and measured after 30 mins by DTNB reagent based Ellman's method
[2] = biological target: Cholinesterase (Equus caballus, UniProt P81908); test: Inhibition of equine serum BChE using acetylthiocholine iodide as substrate preincubated with compound for 30 mins followed by substrate addition and measured after 30 mins by DTNB reagent based Ellman's method
Chain of Cholinesterase (P81908 whole entry): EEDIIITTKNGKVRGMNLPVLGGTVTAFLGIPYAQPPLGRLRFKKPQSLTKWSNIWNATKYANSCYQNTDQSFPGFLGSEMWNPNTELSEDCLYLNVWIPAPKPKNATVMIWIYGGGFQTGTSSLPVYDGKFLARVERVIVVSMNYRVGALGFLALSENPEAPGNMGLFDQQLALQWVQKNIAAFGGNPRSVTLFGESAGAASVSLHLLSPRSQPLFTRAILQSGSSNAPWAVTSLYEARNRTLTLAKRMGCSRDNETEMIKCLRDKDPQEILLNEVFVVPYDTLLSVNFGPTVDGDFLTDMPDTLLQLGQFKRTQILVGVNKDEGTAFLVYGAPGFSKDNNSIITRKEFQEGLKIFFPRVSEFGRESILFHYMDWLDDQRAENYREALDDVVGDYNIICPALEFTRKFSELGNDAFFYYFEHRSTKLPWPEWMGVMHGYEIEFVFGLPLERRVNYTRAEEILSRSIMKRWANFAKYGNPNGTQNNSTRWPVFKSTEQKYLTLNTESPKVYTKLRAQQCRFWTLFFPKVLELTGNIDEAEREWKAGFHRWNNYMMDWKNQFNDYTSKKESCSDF

[3] = Antioxidant activity assessed as DPPH radical scavenging activity at 200 uM incubated for 30 mins relative to control; assay type: functional

Chain of Acetylcholinesterase (P22303 whole entry): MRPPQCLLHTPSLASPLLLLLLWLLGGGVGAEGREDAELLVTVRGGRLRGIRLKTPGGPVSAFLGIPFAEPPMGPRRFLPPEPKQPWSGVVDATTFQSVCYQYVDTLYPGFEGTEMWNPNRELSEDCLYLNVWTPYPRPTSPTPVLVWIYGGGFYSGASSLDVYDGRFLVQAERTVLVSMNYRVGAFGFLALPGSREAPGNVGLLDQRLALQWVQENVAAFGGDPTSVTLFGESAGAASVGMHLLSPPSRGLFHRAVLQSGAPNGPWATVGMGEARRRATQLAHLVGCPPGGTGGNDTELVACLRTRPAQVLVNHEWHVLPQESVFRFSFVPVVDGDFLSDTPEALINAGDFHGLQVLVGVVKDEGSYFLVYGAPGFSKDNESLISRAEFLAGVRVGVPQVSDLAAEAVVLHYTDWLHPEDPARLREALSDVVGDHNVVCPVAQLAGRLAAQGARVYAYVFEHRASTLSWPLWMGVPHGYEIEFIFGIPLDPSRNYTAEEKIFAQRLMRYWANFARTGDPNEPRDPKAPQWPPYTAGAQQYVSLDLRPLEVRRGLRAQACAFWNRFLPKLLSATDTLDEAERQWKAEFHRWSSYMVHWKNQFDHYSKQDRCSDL

| Compound | pIC50 [1] | pIC50 [2] | Activity [3] |
| --- | --- | --- | --- |
| CC(c1cccc(OC(=O)NCCc2c[nH]c3ccc(Cl)cc23)c1)N(C)C (centres undefined) | 7.86 | 8.67 | 33.3% |
| Cc1ccc2[nH]cc(CCNC(=O)Oc3cccc([C@H](C)N(C)C)c3)c2c1 | 7.26 | 7.58 |  |
| COc1ccc2[nH]cc(CCNC(=O)Oc3cccc([C@H](C)N(C)C)c3)c2c1 | 7.67 | 8.50 | 19.8% |
| Cc1ccc2[nH]cc(CCNC(=O)Oc3cccc(C(C)N(C)C)c3)c2c1 (centres undefined) | 7.14 | 7.41 |  |
| C[C@H](c1cccc(OC(=O)NCCc2c[nH]c3ccc(Cl)cc23)c1)N(C)C | 8.08 | 8.12 |  |
| CC(c1cccc(OC(=O)NCCc2c[nH]c3ccccc23)c1)N(C)C (centres undefined) | 7.61 | 7.83 |  |
